Data from ChEMBL document CHEMBL1127208, “Centaureidin, a cytotoxic flavone from Polymnia fruticosa, inhibits tubulin polymerization” (Bioorg Med Chem Lett, 1993).

Key:
[1] = target: Tubulin alpha chain (Sus scrofa) (UniProt P02550); test: Tested for the inhibition using the binding of 5 uM [3H]colchicine to purified tubulin at 37 degree Centigrade
[2] = Tested for the cytotoxicity concentration in CA46 burkitt lymphoma cells; type: functional, cell-based; settings: Homo sapiens
[3] = target: Tubulin alpha chain (Sus scrofa, UniProt P02550); test: Tested for 50 % inhibition of tubulin polymerization by turbidimetric assay
Tubulin alpha chain, sequence (P02550 whole entry, looked up): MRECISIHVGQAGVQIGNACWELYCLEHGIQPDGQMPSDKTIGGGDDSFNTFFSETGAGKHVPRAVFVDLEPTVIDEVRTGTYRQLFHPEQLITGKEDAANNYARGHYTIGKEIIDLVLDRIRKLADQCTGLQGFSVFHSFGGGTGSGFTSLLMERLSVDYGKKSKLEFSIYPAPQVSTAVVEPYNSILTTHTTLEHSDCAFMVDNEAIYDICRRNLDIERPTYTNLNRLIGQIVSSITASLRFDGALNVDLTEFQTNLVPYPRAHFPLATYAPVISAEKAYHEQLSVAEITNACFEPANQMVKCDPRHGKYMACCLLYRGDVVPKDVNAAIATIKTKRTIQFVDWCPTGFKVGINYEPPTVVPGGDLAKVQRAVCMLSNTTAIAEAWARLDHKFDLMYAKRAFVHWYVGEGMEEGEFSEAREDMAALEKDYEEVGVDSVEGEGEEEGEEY

Tubulin alpha chain (Sus scrofa), sequence (P02550 whole entry, looked up): as above

Compound	inhibition [1] [%]	IC50 [2] [nM]	IC50 [3] [nM]
COc1cc([C@@H]2c3cc4c(cc3[C@H](O)[C@H]3COC(=O)[C@H]23)OCO4)cc(OC)c1OC	84		
COc1ccc(-c2oc3cc(O)c(OC)c(O)c3c(=O)c2OC)cc1O [CENTAUREIDIN]		200	3000
